Key:
cotton aphid = assay: Greenhouse trial, number of apterous aphids (AA) per cotton plant; format: in vivo, Aphis gossypil; details: for # of AA 6 DAT / # of AA 16 DAT: apterous aphids per plant; for # of AA 6 DAT: untreated 290; for # of AA 16 DAT: untreated 750
Procedure: (§1) A greenhouse trial was conducted to determine the insecticidal effects against the cotton aphid (Aphis gossypil). In this regard, cotton plants infected with the cotton aphid were sprayed in a growth chamber and placed in a greenhouse. Counts were made on apterous forms at 6 and 16 days after treatment (DAT), with the data appearing in Tables 1A and 1 B below.
Example 1 was repeated and the number of apterous aphids (AA) per plant at 6 and 16 DAT were noted. The data appear in Table 4 below versus a conventional insecticide, imidacloprid (Provado® insecticide commercially available from Bayer Corp.).

[1] = tested on: green peach aphids (Myzus persicae); assay: Greenhouse trial, celosia infected with green peach aphids; % control; format: in vivo
Procedure: as §1
Example 1 was repeated except using celosia infected with green peach aphids (Myzus persicae) and using the application rates noted.

[2] = tested on: cotton aphid (Aphis gossypil); assay: Greenhouse trial, cotton plants infected with cotton aphid, sprayed; % control; format: in vivo
Procedure: as §1

[3] = tested on: twospotted spider mites (Tetranychus urticae); assay: Greenhouse trial, dracaena infected with twospotted spider mites; % control; format: in vivo
Procedure: as §1
Example 1 was repeated except using dracaena infected with twospotted spider mites (Tetranychus urticae) and using the application rates noted.

Row | SMILES | # of AA 6 DAT (cotton aphid; 5 ppm ai) | # of AA 16 DAT (cotton aphid; 5 ppm ai) | # of AA 6 DAT (cotton aphid; 10 ppm ai) | # of AA 16 DAT (cotton aphid; 10 ppm ai) | # of AA 6 DAT (cotton aphid; 50 ppm ai) | # of AA 16 DAT (cotton aphid; 50 ppm ai) | # of AA 6 DAT (cotton aphid; 100 ppm ai) | # of AA 16 DAT (cotton aphid; 100 ppm ai) | % Cotton Aphid Control 6 DAT ([2]; 5 ppm) | % Cotton Aphid Control 16 DAT ([2]; 5 ppm) | % Cotton Aphid Control 6 DAT ([2]; 10 ppm) | % Cotton Aphid Control 16 DAT ([2]; 10 ppm) | % Cotton Aphid Control 6 DAT ([2]; 50 ppm) | % Cotton Aphid Control 16 DAT ([2]; 50 ppm) | % Cotton Aphid Control 6 DAT ([2]; 100 ppm) | % Cotton Aphid Control 16 DAT ([2]; 100 ppm) | other results
1 | CC(C)(C)c1ccc(CSc2cnn(C(C)(C)C)c(=O)c2Cl)cc1 [BAS 300, 2-tert-butyl-5-(4-tert-butylbenzylthio)-4-chloropyridazin-3(2H)-one] | 76 | 233 | 72 | 222 | 16 | 15 | 7 | 7 | 73.8% | 68.9% | 75.2% | 70.4% | 94.5% | 98% | 97.6% | 99.1% | activity against the cotton aphid (cotton aphid; 6 DAT, application rate of 5 ppm ai): moderate activity; # of AA 6 DAT (cotton aphid; 200 ppm ai): 1; # of AA 16 DAT (cotton aphid; 200 ppm ai): 4; # of AA 6 DAT (cotton aphid; 300 ppm ai): 2; # of AA 16 DAT (cotton aphid; 300 ppm ai): 2; intrinsic activity against the cotton aphid (cotton aphid; in vivo): excellent intrinsic activity; % Green Peach Aphid Control ([1]; 0.9 lb ai/100 gal, 2 DAT): 0%; % Green Peach Aphid Control ([1]; 0.9 lb ai/100 gal, 4 DAT): 47%; % Green Peach Aphid Control ([1]; 0.9 lb ai/100 gal, 6 DAT): 77%; % Green Peach Aphid Control ([1]; 0.9 lb ai/100 gal, 10 DAT): 97%; % Green Peach Aphid Control ([1]; 0.9 lb ai/100 gal, 14 DAT): 95%; % Twospotted Spider Mite Control ([3]; 2 oz formulated product/100 gal, 7 DAT): 80%; % Twospotted Spider Mite Control ([3]; 2 oz formulated product/100 gal, 14 DAT): 91%
2 | CO/N=C(/C(=O)OC)c1ccccc1COc1ccccc1C [BAS 490, methyl-(E)-2-methoxyimino-2-[2-o-tolyoxy-methyl)phenyl] acetate] | 258 | 650 | 290 | 643 | 298 | 717 | 316 | 550 | 11% | 13.3% | 0% | 14.3% | 0% | 4.4% | 0% | 26.6% | effectiveness alone against the cotton aphid (cotton aphid; alone, at all rates): ineffective alone; % Green Peach Aphid Control ([1]; 0.1 lb ai/100 gal, 2 DAT): 0%; % Green Peach Aphid Control ([1]; 0.1 lb ai/100 gal, 4 DAT): 14%; % Green Peach Aphid Control ([1]; 0.1 lb ai/100 gal, 6 DAT): 5%; % Green Peach Aphid Control ([1]; 0.1 lb ai/100 gal, 10 DAT): 10%; % Green Peach Aphid Control ([1]; 0.1 lb ai/100 gal, 14 DAT): 5%; % Twospotted Spider Mite Control ([3]; 3.2 oz formulated product/100 gal, 7 DAT): 16%; % Twospotted Spider Mite Control ([3]; 3.2 oz formulated product/100 gal, 14 DAT): 28%

From US20030083334A1, “Synergistic insecticidal formulations of pyridaben and strobilurins” (priority 2000, published 2003)
